Measurements from US8673950B2, “Dihydrooxazol-2-amine derivatives” (Hoffmann-LaRoche Inc., priority 2010, dated 2014).
One block for each compound: values may come before it.

Experiments:
rat TAAR1 = rat TAAR1 (Rattus norvegicus (Rat), UniProt Q923Y9); test: Radioligand binding assay on rat TAAR1; settings: rat TAAR1, membranes of stably transfected HEK-293 cells; second value of cell mouse/rat
Method: (§1) Construction of TAAR Expression Plasmids and Stably Transfected Cell Lines
(§2) For the construction of expression plasmids the coding sequences of human, rat and mouse TAAR 1 were amplified from genomic DNA essentially as described by Lindemann et al.. The Expand High Fidelity PCR System (Roche Diagnostics) was used with 1.5 mM Mg^2+ and purified PCR products were cloned into pCR2.1-TOPO cloning vector (Invitrogen) following the instructions of the manufacturer. PCR products were subcloned into the pIRESneo2 vector (BD Clontech, Palo Alto, Calif.), and expression vectors were sequence verified before introduction in cell lines.
(§3) HEK293 cells (ATCC # CRL-1573) were cultured essentially as described by Lindemann et al. (2005). For the generation of stably transfected cell lines HEK293 cells were transfected with the pIRESneo2 expression plasmids containing the TAAR coding sequences (described above) with Lipofectamine 2000 (Invitrogen) according to the instructions of the manufacturer, and 24 hrs post transfection the culture medium was supplemented with 1 mg/ml G418 (Sigma, Buchs, Switzerland). After a culture period of about 10 d clones were isolated, expanded and tested for responsiveness to trace amines (all compounds purchased from Sigma) with the cAMP Biotrak Enzyme immunoassay (EIA) System (Amersham) following the non-acetylation EIA procedure provided by the manufacturer.
Radioligand Binding Assay on Rat TAAR1
(§4) Membrane Preparation and Radioligand Binding.
HEK-293 cells stably expressing rat TAAR1 were maintained at 37° C. and 5% CO2 in DMEM high glucose medium, containing fetal calf serum (10%, heat inactivated for 30 min at 56° C.), penicillin/streptomycin (1%), and 375 μg/ml geneticin (Gibco). Cells were released from culture flasks using trypsin/EDTA, harvested, washed twice with ice-cold PBS (without Ca^2+ and Mg^2+), pelleted at 1'000 rpm for 5 min at 4° C., frozen and stored at −80° C. Frozen pellets were suspended in 20 ml HEPES-NaOH (20 mM, pH 7.4) containing 10 mM EDTA and homogenized with a Polytron (PT 6000, Kinematica) at 14'000 rpm for 20 s. The homogenate was centrifuged at 48'000×g for 30 min at 4° C. Subsequently, the supernatant was removed and discarded, and the pellet resuspended in 20 ml HEPES-NaOH (20 mM, pH 7.4) containing 0.1 mM EDTA using the Polytron (20 s at 14'000 rpm). This procedure was repeated and the final pellet resuspended in HEPES-NaOH containing 0.1 mM EDTA and homogenized using the Polytron. Typically, aliquots of 2 ml membrane portions were stored at −80° C. With each new membrane batch the dissociation constant (Kd) was determined via a saturation curve. […] Nonspecific binding was defined as the amount of ^3[H]-(S)-4-[(ethyl-phenyl-amino)-methyl]-4,5-dihydro-oxazol-2-ylamine bound in the presence of 10 μM unlabeled ligand. All compounds were tested at a broad range of concentrations (10 pM to 10 μM) in duplicates. […] The 96 deep well plates were incubated for 1 hr at 4° C. Incubations were terminated by rapid filtration through Unifilter-96 plates (Packard Instrument Company) and glass filters GF/C (Perkin Elmer) presoaked for 1 hr in polyethylenimine (0.3%) and washed 3 times with 1 ml of cold binding buffer. After addition of 45 μl of Microscint 40 (PerkinElmer) the Unifilter-96 plate was sealed and after 1 hr the radioactivity counted using a TopCount Microplate Scintillation Counter (Packard Instrument Company).

mouse TAAR1 = mouse TAAR1 (Mus musculus (Mouse), UniProt Q923Y8); test: Radioligand binding assay on mouse TAAR1; settings: mouse TAAR1, membranes of stably transfected HEK-293 cells; first value of cell mouse/rat
mouse TAAR1, sequence (Q923Y8 whole entry): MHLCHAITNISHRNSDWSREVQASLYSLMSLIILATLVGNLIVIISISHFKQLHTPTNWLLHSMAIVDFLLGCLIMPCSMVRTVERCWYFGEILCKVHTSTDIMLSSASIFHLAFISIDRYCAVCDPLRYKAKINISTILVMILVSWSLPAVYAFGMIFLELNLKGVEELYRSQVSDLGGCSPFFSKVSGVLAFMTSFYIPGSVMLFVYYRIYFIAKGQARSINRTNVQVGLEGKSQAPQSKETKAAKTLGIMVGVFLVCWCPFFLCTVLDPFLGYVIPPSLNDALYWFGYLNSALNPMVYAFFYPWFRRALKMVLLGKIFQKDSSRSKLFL
Method: as §1, §2, §3
Radioligand Binding Assay on Mouse TAAR1
as §4
HEK-293 cells stably expressing mouse TAAR1 were maintained at 37° C. and 5% CO2 in DMEM high glucose medium, containing fetal calf serum (10%, heat inactivated for 30 min at 56° C.), penicillin/streptomycin (1%), and 375 μg/ml geneticin (Gibco). Cells were released from culture flasks using trypsin/EDTA, harvested, washed twice with ice-cold PBS (without Ca^2+ and Mg^2+), pelleted at 1'000 rpm for 5 min at 4° C., frozen and stored at −80° C. Frozen pellets were suspended in 20 ml HEPES-NaOH (20 mM, pH 7.4) containing 10 mM EDTA and homogenized with a Polytron (PT 6000, Kinematica) at 14'000 rpm for 20 s. The homogenate was centrifuged at 48'000×g for 30 min at 4° C. Subsequently, the supernatant was removed and discarded, and the pellet resuspended in 20 ml HEPES-NaOH (20 mM, pH 7.4) containing 0.1 mM EDTA using the Polytron (20 s at 14'000 rpm). This procedure was repeated and the final pellet resuspended in HEPES-NaOH containing 0.1 mM EDTA and homogenized using the Polytron. Typically, aliquots of 2 ml membrane portions were stored at −80° C. With each new membrane batch the dissociation constant (Kd) was determined via a saturation curve. The TAAR1 radioligand ^3[H]-(S)-4-[(ethyl-phenyl-amino)-methyl]-4,5-dihydro-oxazol-2-ylamine (described in WO 2008/098857) was used at a concentration equal to the calculated Kd value, that was usually around 0.7 nM, resulting in the binding of approximately 0.5% of the radioligand and a specific binding representing approximately 70% of the total binding. Nonspecific binding was defined as the amount of ^3[H]-(S)-4-[(ethyl-phenyl-amino)-methyl]-4,5-dihydro-oxazol-2-ylamine bound in the presence of 10 μM unlabeled ligand. All compounds were tested at a broad range of concentrations ([…]) in duplicates. […] The 96 deep well plates were incubated for 1 hr at 4° C. Incubations were terminated by rapid filtration through Unifilter-96 plates (Packard Instrument Company) and glass filters GF/C (Perkin Elmer) presoaked for 1 hr in polyethylenimine (0.3%) and washed 3 times with 1 ml of cold binding buffer. After addition of 45 μl of Microscint 40 (PerkinElmer) the Unifilter-96 plate was sealed and after 1 hr the radioactivity counted using a TopCount Microplate Scintillation Counter (Packard Instrument Company).

rat TAAR1, sequence (Q923Y9 whole entry): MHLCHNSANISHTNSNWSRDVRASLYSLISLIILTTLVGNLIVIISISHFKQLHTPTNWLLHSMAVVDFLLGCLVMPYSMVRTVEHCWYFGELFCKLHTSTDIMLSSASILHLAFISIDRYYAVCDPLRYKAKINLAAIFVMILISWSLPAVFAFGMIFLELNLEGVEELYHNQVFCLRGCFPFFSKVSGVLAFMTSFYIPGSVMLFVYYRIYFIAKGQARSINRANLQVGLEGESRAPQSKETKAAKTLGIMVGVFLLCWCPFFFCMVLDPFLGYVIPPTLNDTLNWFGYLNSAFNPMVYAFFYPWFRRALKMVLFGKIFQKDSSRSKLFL

- Ki (rat TAAR1): 0.0006 µM
- Ki (mouse TAAR1): 0.0035 µM
Compound: NC1=N[C@@H](CCc2ccc(Nc3cccc4cccnc34)cc2)CO1 [Example 1, (S)-4-(4-(Quinolin-8-ylamino)phenethyl)-4,5-dihydrooxazol-2-amine]

- Ki (rat TAAR1): 0.0001 µM
- Ki (mouse TAAR1): 0.0021 µM
Compound: NC1=N[C@@H](CCc2ccc(Nc3cccc4ccccc34)cc2)CO1 [Example 2, (S)-4-(4-(Naphthalen-1-ylamino)phenethyl)-4,5-dihydrooxazol-2-amine]

- Ki (rat TAAR1): 0.0002 µM
- Ki (mouse TAAR1): 0.0022 µM
Compound: NC1=N[C@@H](CCc2ccc(Nc3ccc(F)cn3)cc2)CO1 [Example 3, (S)-4-(4-(5-Fluoropyridin-2-ylamino)phenethyl)-4,5-dihydrooxazol-2-amine]

- Ki (rat TAAR1): 0.0006 µM
- Ki (mouse TAAR1): 0.0021 µM
Compound: Cc1cc(Nc2ccc(CC[C@H]3COC(N)=N3)cc2)c2ncccc2c1 [Example 4, (S)-4-(4-(6-Methylquinolin-8-ylamino)phenethyl)-4,5-dihydrooxazol-2-amine]

- Ki (rat TAAR1): 0.0001 µM
- Ki (mouse TAAR1): 0.0002 µM
Compound: NC1=N[C@@H](CCc2ccc(Nc3ccc(Cl)cc3)cc2)CO1 [Example 6, (S)-4-{2-[4-(4-Chloro-phenylamino)-phenyl]-ethyl}-4,5-dihydro-oxazol-2-ylamine]

- Ki (rat TAAR1): 0.0002 µM
- Ki (mouse TAAR1): 0.0002 µM
Compound: NC1=N[C@@H](CCc2ccc(Nc3ccc(C(F)(F)F)cc3)cc2)CO1 [Example 8, (S)-4-{2-[4-(4-Trifluoromethyl-phenylamino)-phenyl]-ethyl}-4,5-dihydro-oxazol-2-ylamine]

- Ki (rat TAAR1): 0.0001 µM
- Ki (mouse TAAR1): 0.0001 µM
Compound: Cc1cc(Nc2ccc(CC[C@H]3COC(N)=N3)cc2)ccc1OC(F)(F)F [Example 10, (S)-4-(4-(3-Methyl-4-(trifluoromethoxy)phenylamino)phenethyl)-4,5-dihydrooxazol-2-amine]

- Ki (rat TAAR1): 0.0004 µM
- Ki (mouse TAAR1): 0.0002 µM
Compound: NC1=N[C@@H](CCc2ccc(Nc3ccc(C(F)(F)F)cn3)cc2)CO1 [Example 11, {4-[2-((S)-2-Amino-4,5-dihydro-oxazol-4-yl)-ethyl]-phenyl}-(5-trifluoromethyl-pyridin-2-yl)-amine]

- Ki (rat TAAR1): 0.0002 µM
- Ki (mouse TAAR1): 0.0012 µM
Compound: NC1=N[C@@H](CCc2ccc(Nc3ncc(Cl)cn3)cc2)CO1 [Example 18, {4-[2-((S)-2-Amino-4,5-dihydro-oxazol-4-yl)-ethyl]-phenyl}-(5-chloro-pyrimidin-2-yl)-amine]

- Ki (rat TAAR1): 0.004 µM
- Ki (mouse TAAR1): 0.0224 µM
Compound: NC1=N[C@@H](CCc2ccc(Nc3ncc(F)cn3)cc2)CO1 [Example 20, {4-[2-((S)-2-Amino-4,5-dihydro-oxazol-4-yl)-ethyl]-phenyl}-(5-fluoro-pyrimidin-2-yl)-amine]

- Ki (rat TAAR1): 0.0002 µM
- Ki (mouse TAAR1): 0.0003 µM
Compound: NC1=N[C@@H](CCc2ccc(Nc3cc(C(F)(F)F)ccn3)cc2)CO1 [Example 23, {4-[2-((S)-2-Amino-4,5-dihydro-oxazol-4-yl)-ethyl]-phenyl}-(4-trifluoromethyl-pyridin-2-yl)-amine]

- Ki (rat TAAR1): 0.0013 µM
- Ki (mouse TAAR1): 0.0182 µM
Compound: Cc1cc(Nc2ccc(CC[C@H]3COC(N)=N3)cc2)ncn1 [Example 24, {4-[2-((S)-2-Amino-4,5-dihydro-oxazol-4-yl)-ethyl]-phenyl}-(6-methyl-pyrimidin-4-yl)-amine]

Continued, compound first:

Compound: NC1=N[C@@H](CCc2ccc(Nc3cccc4cccc(Cl)c34)cc2)CO1 [Example 5, (S)-4-(4-(8-Chloronaphthalen-1-ylamino)phenethyl)-4,5-dihydrooxazol-2-amine]
- Ki (rat TAAR1): 0.0033 µM
- Ki (mouse TAAR1): 0.0262 µM

Compound: NC1=N[C@@H](CCc2ccc(Nc3ccc(Cl)cc3F)cc2)CO1 [Example 7, (S)-4-{2-[4-(4-Chloro-2-fluoro-phenylamino)-phenyl]-ethyl}-4,5-dihydro-oxazol-2-ylamine]
- Ki (rat TAAR1): 0.0001 µM
- Ki (mouse TAAR1): 0.0017 µM

Compound: COc1ccc(Nc2ccc(CC[C@H]3COC(N)=N3)cc2)cc1 [Example 9, (S)-4-{2-[4-(4-Methoxy-phenylamino)-phenyl]-ethyl}-4,5-dihydro-oxazol-2-ylamine]
- Ki (rat TAAR1): 0.0002 µM
- Ki (mouse TAAR1): 0.0032 µM

Compound: N#Cc1ccc(N(c2ccc(CC[C@H]3COC(N)=N3)cc2)c2ccc(C#N)cn2)nc1 [Example 12, (S)-6,6′-(4-(2-(2-Amino-4,5-dihydrooxazol-4-yl)ethyl)phenylazanediyl)dinicotinonitrile]
- Ki (mouse TAAR1): 0.111 µM

Compound: NC1=N[C@@H](CCc2ccc(Nc3ccccc3)cc2)CO1 [Example 13, (S)-4-[2-(4-Phenylamino-phenyl)-ethyl]-4,5-dihydro-oxazol-2-ylamine]
- Ki (rat TAAR1): 0.0001 µM
- Ki (mouse TAAR1): 0.0013 µM

Compound: Cc1ccc(Nc2ccc(CC[C@H]3COC(N)=N3)cc2)cc1 [Example 14, (S)-4-(4-(p-Tolylamino)phenethyl)-4,5-dihydrooxazol-2-amine]
- Ki (rat TAAR1): 0.0001 µM
- Ki (mouse TAAR1): 0.0008 µM

Compound: NC1=N[C@@H](CCc2ccc(Nc3ccc(Cl)cn3)cc2)CO1 [Example 15, {4-[2-((S)-2-Amino-4,5-dihydro-oxazol-4-yl)-ethyl]-phenyl}-(5-chloro-pyridin-2-yl)-amine]
- Ki (rat TAAR1): 0.0001 µM
- Ki (mouse TAAR1): 0.0005 µM

Compound: N#Cc1ccc(Nc2ccc(CC[C@H]3COC(N)=N3)cc2)nc1 [Example 16, 6-{4-[2-((S)-2-Amino-4,5-dihydro-oxazol-4-yl)-ethyl]-phenylamino}-nicotinonitrile]
- Ki (rat TAAR1): 0.0004 µM
- Ki (mouse TAAR1): 0.0015 µM

Compound: NC1=N[C@@H](CCc2ccc(Nc3cc(C(F)(F)F)ncn3)cc2)CO1 [Example 17, (S)-4-(4-(6-(Trifluoromethyl)pyrimidin-4-ylamino)phenethyl)-4,5-dihydrooxazol-2-amine]
- Ki (rat TAAR1): 0.0012 µM
- Ki (mouse TAAR1): 0.0013 µM

Compound: NC1=N[C@@H](CCc2ccc(Nc3ccc(Cl)c(Cl)c3)cc2)CO1 [Example 19, (S)-4-(4-(3,4-Dichlorophenylamino)phenethyl)-4,5-dihydrooxazol-2-amine]
- Ki (rat TAAR1): 0.0001 µM
- Ki (mouse TAAR1): 0.0002 µM

Compound: NC1=N[C@@H](CCc2ccc(Nc3ncccc3F)cc2)CO1 [Example 21, {4-[2-((S)-2-Amino-4,5-dihydro-oxazol-4-yl)-ethyl]-phenyl}-(3-fluoro-pyridin-2-yl)-amine]
- Ki (rat TAAR1): 0.0005 µM
- Ki (mouse TAAR1): 0.02 µM

Compound: NC1=N[C@@H](CCc2ccc(Nc3cc(F)ccn3)cc2)CO1 [Example 22, {4-[2-((S)-2-Amino-4,5-dihydro-oxazol-4-yl)-ethyl]-phenyl}-(4-fluoro-pyridin-2-yl)-amine]
- Ki (rat TAAR1): 0.0002 µM
- Ki (mouse TAAR1): 0.0034 µM
